Here are results for one molecule from patent US7727736B2, “Soluble phospholipids for use in clotting factor assays” (The University of North Carolina at Chapel Hill, priority 2003, dated 2010).

For one experiment, the target named is T1, FVa2 (Homo sapiens, UniProt P12259).
T1 construct: from tissue; host or cells: fresh frozen human plasma (American Red Cross Center, Durham, N.C.)
T1 sequence (P12259 29-737 limits assumed): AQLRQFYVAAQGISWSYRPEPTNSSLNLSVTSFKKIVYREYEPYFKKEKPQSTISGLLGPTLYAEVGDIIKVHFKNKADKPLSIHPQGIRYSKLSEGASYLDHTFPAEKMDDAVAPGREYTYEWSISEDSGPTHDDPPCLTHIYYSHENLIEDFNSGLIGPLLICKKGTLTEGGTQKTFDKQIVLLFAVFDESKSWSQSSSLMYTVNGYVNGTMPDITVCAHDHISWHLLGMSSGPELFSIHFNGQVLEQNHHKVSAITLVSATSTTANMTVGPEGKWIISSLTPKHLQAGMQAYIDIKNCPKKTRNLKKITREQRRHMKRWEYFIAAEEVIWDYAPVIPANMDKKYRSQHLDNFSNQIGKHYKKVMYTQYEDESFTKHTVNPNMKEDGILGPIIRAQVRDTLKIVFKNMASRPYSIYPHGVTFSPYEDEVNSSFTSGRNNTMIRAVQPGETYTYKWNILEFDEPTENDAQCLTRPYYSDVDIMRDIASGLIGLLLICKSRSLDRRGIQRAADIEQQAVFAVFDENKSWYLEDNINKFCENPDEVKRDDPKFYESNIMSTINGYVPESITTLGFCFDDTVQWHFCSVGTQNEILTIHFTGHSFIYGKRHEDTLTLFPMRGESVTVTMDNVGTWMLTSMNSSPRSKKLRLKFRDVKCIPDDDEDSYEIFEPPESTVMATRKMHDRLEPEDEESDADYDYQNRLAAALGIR
T1 sequence (P12259 1574-2224 limits assumed): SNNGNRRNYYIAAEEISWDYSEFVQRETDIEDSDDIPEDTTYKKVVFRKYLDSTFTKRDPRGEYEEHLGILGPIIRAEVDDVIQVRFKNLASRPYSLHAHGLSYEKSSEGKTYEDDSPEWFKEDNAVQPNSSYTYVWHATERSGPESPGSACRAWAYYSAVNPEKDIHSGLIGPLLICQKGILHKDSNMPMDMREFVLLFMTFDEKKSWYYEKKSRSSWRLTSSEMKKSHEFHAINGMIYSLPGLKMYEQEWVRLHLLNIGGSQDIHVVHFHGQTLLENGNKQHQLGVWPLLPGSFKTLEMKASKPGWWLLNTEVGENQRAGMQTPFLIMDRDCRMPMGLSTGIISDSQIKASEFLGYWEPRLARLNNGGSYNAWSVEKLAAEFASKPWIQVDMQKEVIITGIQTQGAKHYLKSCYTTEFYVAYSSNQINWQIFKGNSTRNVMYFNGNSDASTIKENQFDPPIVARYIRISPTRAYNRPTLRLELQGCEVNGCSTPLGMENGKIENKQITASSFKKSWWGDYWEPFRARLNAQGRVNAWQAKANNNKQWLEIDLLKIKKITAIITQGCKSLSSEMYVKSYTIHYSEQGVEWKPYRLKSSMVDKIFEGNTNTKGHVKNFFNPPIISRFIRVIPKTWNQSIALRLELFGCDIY
As to the kind of experiment: Native gel electrophoresis (Ferguson analysis), C6PS bound to FVa2. Format: binding. The note with it: 400 μM C6PS. As for the experimental part: Native Gel Electrophoresis. This method has been used to document the association of blood coagulation proteins in solution (Majumder, et al. (2002) supra; Majumder, et al. (2003) supra). A mixture of 1 nM FXa and 1 nM FVa was incubated at 37° C. for 2 minutes in the presence and absence of 400 μM C6PS and the two samples were run together with known marker proteins (270 kiloDalton-14.2 kiloDalton; SIGMA, St. Louis, Mo.) on five gels (5, 6, 6.5, 7, and 8% total acrylamide with bisacrylamide/acrylamide being 1/29 in all cases) in a BIORAD® MINI-PROTEAN® II minigel apparatus (BIORAD® Corp., Hercules, Calif.) and stained with colloidal Coomassie blue (Mitra, et al. (1994) supra). FXa and FVa, at these same concentrations and in the presence of 400 μM C6PS, were run separately as controls. Protein retardation coefficients, which depend to a good approximation only on the hydrodynamic size and shape of the protein, were determined for both the marker and unknown proteins (Ferguson (1964) Metabolism 13:985-1002). A log-log plot of the retardation coefficient against the molecular weights of the marker proteins produced a linear curve from which the molecular weight of the FVa•FXa complex was determined from its measured retardation coefficient (Bryan (1977) Anal. Biochem. 78(2):513-9). […]

Another experiment addresses T2, factor IXa (Homo sapiens, UniProt P00740).
T2 construct: intrinsic tryptophan fluorescence of factor IXa
As to the kind of experiment: Activation of factor X by factor IXa (proteolytic activity). It counts as biochemical. As for the experimental part: The assay was conducted in the presence of increasing concentrations of C6PS.
C6PS promotes the proteolytic activation of factor X by factor IXa, just as it promotes the proteolytic activation of prothrombin by factor Xa. […] The rate of activation of factor X by factor IXa in the presence of 700 μM C6PS was monitored at different concentrations of factor X (FIG. 11). The KM for this reaction was 300 nM, which is the same as that obtained with 20% PS/PC membranes (Larson et al. (1996) J. Biol. Chem. 271 3869).

T2 sequence (P00740 47-191 limits assumed): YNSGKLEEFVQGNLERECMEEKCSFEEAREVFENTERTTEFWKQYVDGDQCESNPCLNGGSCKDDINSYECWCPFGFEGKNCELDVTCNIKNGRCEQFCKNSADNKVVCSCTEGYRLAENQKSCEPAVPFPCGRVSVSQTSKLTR
T2 sequence (P00740 227-461 limits assumed): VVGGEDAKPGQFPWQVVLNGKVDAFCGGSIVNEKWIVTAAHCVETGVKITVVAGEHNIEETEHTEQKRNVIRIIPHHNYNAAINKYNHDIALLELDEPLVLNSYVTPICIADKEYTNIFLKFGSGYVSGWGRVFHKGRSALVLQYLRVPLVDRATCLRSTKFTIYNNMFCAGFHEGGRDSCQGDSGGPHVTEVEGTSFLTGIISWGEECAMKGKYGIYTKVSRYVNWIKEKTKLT

With `CCCCCC(=O)OC[C@H](COP(=O)(O)OC[C@H](N)C(=O)O)OC(=O)CCCCC` [C6PS, 1,2-dicaproyl-sn-glycero-3-phospho-L-serine], the “molecules of C6PS bound to FVa2 from molecular mass” value on FVa2 is 4.2 molecules. The Kd (in general, the free concentration of one partner at which half of the binding sites on the other are occupied at equilibrium, for simple one-to-one binding) at factor IXa (10 nM IXa, 5 mM calcium, read-out: Kd from proteolytic activity of IXa (hyperbolic fit)) was determined as 164 µM. In addition, at factor IXa (700 μM C6PS), the “rate of activation of factor X by factor IXa compared with 20% PS/PC membranes” value was “identical”.
